Experimental data taken from US6610853B1, “N-(phenylsulfonyl)picolinamide derivatives, process for producing the same, and herbicide” (Kureha Kagaku Kogyo K.K., priority 2000, dated 2003).

Key:
Test in all cases: Test on herbicidal activity by foliar application
Format in all cases: in vivo
Conditions in all cases: foliar spray, 1 kg/ha, plants at 1-2 leaf stage in pots, evaluated 14 days after spraying
[1] = system: Abutilon theophrasti
Protocol: (§1) Test on Herbicidal Activity by Foliar Application: Herbicidal solutions of each test compounds, which were prepared by dissolving at predetermined concentrations such a wettable powder of the test compound as that described in the above Formulation Example, were sprayed at dosages of 1 kg/ha over foliar parts of Amaranthus retroflexus, Bidens pilosa, Sinapis arvensis, Stellaria media, Solanum nigrum, Abutilon theophrasti, Convolvulus arvensis, Matricaria chamomilla, Galium aparine, Veronica hederaefolia, and Setaria viridis (each test plant is 1-2 leaf stage) which were grown in pots. 14 days latter after spraying, its herbicidal activity was evaluated in accordance with the below-described system. Herbicidal Activity 1: less than 30% inhibition 2: 30% or more-50% inhibition 3: 50% or more-70% inhibition 4: 70% or more-90% inhibition 5: 90% or more inhibition

[2] = system: Amaranthus retroflexus
Protocol: as §1

[3] = system: Bidens pilosa
Protocol: as §1

[4] = system: Convolvulus arvensis
Protocol: as §1

[5] = system: Galium aparine
Protocol: as §1

[6] = system: Matricaria chamomilla
Protocol: as §1

[7] = system: Setaria viridis
Protocol: as §1

[8] = system: Sinapis arvensis
Protocol: as §1

[9] = system: Solanum nigrum
Protocol: as §1

[10] = system: Stellaria media
Protocol: as §1

[11] = system: Veronica hederaefolia
Protocol: as §1

## COc1cc(Cl)nc(C(=O)NS(=O)(=O)c2c(Cl)cccc2Cl)c1 [Compound I-615, 6-Chloro-N-[(2,6-Dichlorophenyl)sulfonyl]-4-methoxypyridine-2-carboxamide]
[1]
  Herbicidal activity, Abutilon theophrasti: 5 (90% or more inhibition)
[2]
  Herbicidal activity, Amaranthus retroflexus: 4 (70% or more-90% inhibition)
[3]
  Herbicidal activity, Bidens pilosa: 5 (90% or more inhibition)
[4]
  Herbicidal activity, Convolvulus arvensis: 4 (70% or more-90% inhibition)
[5]
  Herbicidal activity, Galium aparine: 5 (90% or more inhibition)
[6]
  Herbicidal activity, Matricaria chamomilla: 5 (90% or more inhibition)
[7]
  Herbicidal activity, Setaria viridis: 4 (70% or more-90% inhibition)
[8]
  Herbicidal activity, Sinapis arvensis: 5 (90% or more inhibition)
[9]
  Herbicidal activity, Solanum nigrum: 5 (90% or more inhibition)
[10]
  Herbicidal activity, Stellaria media: 5 (90% or more inhibition)
[11]
  Herbicidal activity, Veronica hederaefolia: 4 (70% or more-90% inhibition)

## COc1ccc(C(=O)NS(=O)(=O)c2ccccc2S(=O)(=O)N(C)C)nc1Br [Compound I-895, N-[[2-(N,N-Dimethylaminosulfonyl)phenyl]-sulfonyl]-6-bromo-5-methoxy-2-pyridinecarboxamide]
[1]
  Herbicidal activity, Abutilon theophrasti: 5 (90% or more inhibition)
[2]
  Herbicidal activity, Amaranthus retroflexus: 5 (90% or more inhibition)
[3]
  Herbicidal activity, Bidens pilosa: 5 (90% or more inhibition)
[4]
  Herbicidal activity, Convolvulus arvensis: 5 (90% or more inhibition)
[5]
  Herbicidal activity, Galium aparine: 5 (90% or more inhibition)
[6]
  Herbicidal activity, Matricaria chamomilla: 5 (90% or more inhibition)
[7]
  Herbicidal activity, Setaria viridis: 5 (90% or more inhibition)
[8]
  Herbicidal activity, Sinapis arvensis: 5 (90% or more inhibition)
[9]
  Herbicidal activity, Solanum nigrum: 5 (90% or more inhibition)
[10]
  Herbicidal activity, Stellaria media: 5 (90% or more inhibition)
[11]
  Herbicidal activity, Veronica hederaefolia: 5 (90% or more inhibition)

## COc1cc(Cl)nc(C(=O)NS(=O)(=O)c2c(F)cccc2F)c1 [Compound I-975, N-[(2,6-Difluorophenyl)sulfonyl]-6-chloro-4-methoxy-2-pyridinecarboxamide]
[1]
  Herbicidal activity, Abutilon theophrasti: 5 (90% or more inhibition)
[2]
  Herbicidal activity, Amaranthus retroflexus: 3 (50% or more-70% inhibition)
[3]
  Herbicidal activity, Bidens pilosa: 5 (90% or more inhibition)
[4]
  Herbicidal activity, Convolvulus arvensis: 4 (70% or more-90% inhibition)
[5]
  Herbicidal activity, Galium aparine: 5 (90% or more inhibition)
[6]
  Herbicidal activity, Matricaria chamomilla: 4 (70% or more-90% inhibition)
[7]
  Herbicidal activity, Setaria viridis: 3 (50% or more-70% inhibition)
[8]
  Herbicidal activity, Sinapis arvensis: 5 (90% or more inhibition)
[9]
  Herbicidal activity, Solanum nigrum: 5 (90% or more inhibition)
[10]
  Herbicidal activity, Stellaria media: 4 (70% or more-90% inhibition)
[11]
  Herbicidal activity, Veronica hederaefolia: 3 (50% or more-70% inhibition)

## CN(C)S(=O)(=O)c1ccccc1S(=O)(=O)NC(=O)c1cccc(Cl)n1 [Compound I-861, N-[[2-(N,N-Dimethylaminosulfonyl)phenyl]-sulfonyl)-6-chloro-2-pirydinecarboxamide]
[1]
  Herbicidal activity, Abutilon theophrasti: 5 (90% or more inhibition)
[2]
  Herbicidal activity, Amaranthus retroflexus: 5 (90% or more inhibition)
[3]
  Herbicidal activity, Bidens pilosa: 5 (90% or more inhibition)
[4]
  Herbicidal activity, Convolvulus arvensis: 5 (90% or more inhibition)
[5]
  Herbicidal activity, Galium aparine: 5 (90% or more inhibition)
[6]
  Herbicidal activity, Matricaria chamomilla: 5 (90% or more inhibition)
[7]
  Herbicidal activity, Setaria viridis: 5 (90% or more inhibition)
[8]
  Herbicidal activity, Sinapis arvensis: 5 (90% or more inhibition)
[9]
  Herbicidal activity, Solanum nigrum: 5 (90% or more inhibition)
[10]
  Herbicidal activity, Stellaria media: 5 (90% or more inhibition)
[11]
  Herbicidal activity, Veronica hederaefolia: 4 (70% or more-90% inhibition)

## COc1ccc(C(=O)NS(=O)(=O)c2ccccc2S(=O)(=O)N(C)C)nc1OC [Compound I-889, N-[[2-(N,N-Dimethylaminosulfonyl)phenyl]-sulfonyl]-5,6-dimethoxy-2-pyridinecarboxamide]
[1]
  Herbicidal activity, Abutilon theophrasti: 5 (90% or more inhibition)
[2]
  Herbicidal activity, Amaranthus retroflexus: 5 (90% or more inhibition)
[3]
  Herbicidal activity, Bidens pilosa: 5 (90% or more inhibition)
[4]
  Herbicidal activity, Convolvulus arvensis: 4 (70% or more-90% inhibition)
[5]
  Herbicidal activity, Galium aparine: 5 (90% or more inhibition)
[6]
  Herbicidal activity, Matricaria chamomilla: 5 (90% or more inhibition)
[7]
  Herbicidal activity, Setaria viridis: 4 (70% or more-90% inhibition)
[8]
  Herbicidal activity, Sinapis arvensis: 5 (90% or more inhibition)
[9]
  Herbicidal activity, Solanum nigrum: 4 (70% or more-90% inhibition)
[10]
  Herbicidal activity, Stellaria media: 5 (90% or more inhibition)
[11]
  Herbicidal activity, Veronica hederaefolia: 3 (50% or more-70% inhibition)

## COc1ccc(C(=O)NS(=O)(=O)c2ccccc2OC(F)(F)F)nc1OC [Compound I-799, N-[(2-Trifluoromethoxyphenyl)sulfonyl]-5,6-dimethoxy-2-pyridinecarboxamide]
[1]
  Herbicidal activity, Abutilon theophrasti: 5 (90% or more inhibition)
[2]
  Herbicidal activity, Amaranthus retroflexus: 3 (50% or more-70% inhibition)
[3]
  Herbicidal activity, Bidens pilosa: 4 (70% or more-90% inhibition)
[4]
  Herbicidal activity, Convolvulus arvensis: 3 (50% or more-70% inhibition)
[5]
  Herbicidal activity, Galium aparine: 4 (70% or more-90% inhibition)
[6]
  Herbicidal activity, Matricaria chamomilla: 5 (90% or more inhibition)
[7]
  Herbicidal activity, Setaria viridis: 3 (50% or more-70% inhibition)
[8]
  Herbicidal activity, Sinapis arvensis: 5 (90% or more inhibition)
[9]
  Herbicidal activity, Solanum nigrum: 4 (70% or more-90% inhibition)
[10]
  Herbicidal activity, Stellaria media: 5 (90% or more inhibition)
[11]
  Herbicidal activity, Veronica hederaefolia: 4 (70% or more-90% inhibition)

## COc1ccc(C(=O)NS(=O)(=O)c2ccccc2S(=O)(=O)N(C)OC)nc1Br [Compound I-830, 6-Bromo-5-methoxy-N-[[2-(N-methyl-N-methoxyaminosulfonyl]phenyl]sulfonyl]-2-pyridinecarboxamide]
[1]
  Herbicidal activity, Abutilon theophrasti: 5 (90% or more inhibition)
[2]
  Herbicidal activity, Amaranthus retroflexus: 5 (90% or more inhibition)
[3]
  Herbicidal activity, Bidens pilosa: 5 (90% or more inhibition)
[4]
  Herbicidal activity, Convolvulus arvensis: 5 (90% or more inhibition)
[5]
  Herbicidal activity, Galium aparine: 5 (90% or more inhibition)
[6]
  Herbicidal activity, Matricaria chamomilla: 5 (90% or more inhibition)
[7]
  Herbicidal activity, Setaria viridis: 4 (70% or more-90% inhibition)
[8]
  Herbicidal activity, Sinapis arvensis: 5 (90% or more inhibition)
[9]
  Herbicidal activity, Solanum nigrum: 5 (90% or more inhibition)
[10]
  Herbicidal activity, Stellaria media: 5 (90% or more inhibition)
[11]
  Herbicidal activity, Veronica hederaefolia: 5 (90% or more inhibition)

## COc1ccc(C(=O)NS(=O)(=O)c2ccccc2C(F)(F)F)nc1 [Compound I-054, N-[(2-Trifluoromethylphenyl)sulfonyl]-5-methoxy-2-pyridinecarboxamide]
[1]
  Herbicidal activity, Abutilon theophrasti: 2 (30% or more-50% inhibition)
[2]
  Herbicidal activity, Amaranthus retroflexus: 3 (50% or more-70% inhibition)
[3]
  Herbicidal activity, Bidens pilosa: 5 (90% or more inhibition)
[4]
  Herbicidal activity, Convolvulus arvensis: 3 (50% or more-70% inhibition)
[5]
  Herbicidal activity, Galium aparine: 4 (70% or more-90% inhibition)
[6]
  Herbicidal activity, Matricaria chamomilla: 5 (90% or more inhibition)
[7]
  Herbicidal activity, Setaria viridis: 5 (90% or more inhibition)
[8]
  Herbicidal activity, Sinapis arvensis: 5 (90% or more inhibition)
[9]
  Herbicidal activity, Solanum nigrum: 4 (70% or more-90% inhibition)
[10]
  Herbicidal activity, Stellaria media: 5 (90% or more inhibition)
[11]
  Herbicidal activity, Veronica hederaefolia: 4 (70% or more-90% inhibition)

## COC(=O)c1ccccc1S(=O)(=O)NC(=O)c1cc(OC)cc(C)n1 [Compound I-254, 2-[[[(4-Methoxy-6-methylpyridin-2-yl)carbonyl]-amino]sulfonyl]benzoic Acid Methyl Ester]
[1]
  Herbicidal activity, Abutilon theophrasti: 5 (90% or more inhibition)
[2]
  Herbicidal activity, Amaranthus retroflexus: 5 (90% or more inhibition)
[3]
  Herbicidal activity, Bidens pilosa: 5 (90% or more inhibition)
[4]
  Herbicidal activity, Convolvulus arvensis: 3 (50% or more-70% inhibition)
[5]
  Herbicidal activity, Galium aparine: 5 (90% or more inhibition)
[6]
  Herbicidal activity, Matricaria chamomilla: 3 (50% or more-70% inhibition)
[7]
  Herbicidal activity, Setaria viridis: 4 (70% or more-90% inhibition)
[8]
  Herbicidal activity, Sinapis arvensis: 5 (90% or more inhibition)
[9]
  Herbicidal activity, Solanum nigrum: 5 (90% or more inhibition)
[10]
  Herbicidal activity, Stellaria media: 5 (90% or more inhibition)
[11]
  Herbicidal activity, Veronica hederaefolia: 5 (90% or more inhibition)

## COc1cc(Cl)nc(C(=O)NS(=O)(=O)c2ccccc2Cl)c1 [Compound I-705, N-[(2-Chlorophenyl)sulfonyl]-6-chloro-4-methoxypyridine-2-carboxamide]
[1]
  Herbicidal activity, Abutilon theophrasti: 2 (30% or more-50% inhibition)
[2]
  Herbicidal activity, Amaranthus retroflexus: 4 (70% or more-90% inhibition)
[3]
  Herbicidal activity, Bidens pilosa: 5 (90% or more inhibition)
[4]
  Herbicidal activity, Convolvulus arvensis: 5 (90% or more inhibition)
[5]
  Herbicidal activity, Galium aparine: 4 (70% or more-90% inhibition)
[6]
  Herbicidal activity, Matricaria chamomilla: 4 (70% or more-90% inhibition)
[7]
  Herbicidal activity, Setaria viridis: 3 (50% or more-70% inhibition)
[8]
  Herbicidal activity, Sinapis arvensis: 5 (90% or more inhibition)
[9]
  Herbicidal activity, Solanum nigrum: 4 (70% or more-90% inhibition)
[10]
  Herbicidal activity, Stellaria media: 5 (90% or more inhibition)
[11]
  Herbicidal activity, Veronica hederaefolia: 4 (70% or more-90% inhibition)
